Several values for one entry are separate records, joined by “and”; a condition that tells them apart may be missing. Identical values can stand only once.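 How tested: cells in 96-well plates exposed to compound for 48 hours at five concentrations. At the GI50, growth is halved. Definition used: TGI = concentration required for complete inhibition of growth.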
Assays:
Experiment in all cases: inhibition of tumour cell growth, NCI panel, 48 h
LXFL 529 NSCLC = test system: LXFL 529 NSCLC
DMS 114 small cell lung = test system: DMS 114 small cell lung
RXF-631 renal = test system: RXF-631 renal
KM20L2 colon = test system: KM20L2 colon
XF 498 CNS = test system: XF 498 CNS
MDA-N = test system: MDA-N
PC-3 prostate = test system: PC-3 prostate
T-47D breast = test system: T-47D breast
MDA-MB-435 = test system: MDA-MB-435

SMILES	TGI (LXFL 529 NSCLC) [µM]	TGI (DMS 114 small cell lung) [µM]	TGI (RXF-631 renal) [µM]	TGI (KM20L2 colon) [µM]	TGI (XF 498 CNS)	TGI (MDA-N) [µM]	TGI (PC-3 prostate) [µM]	TGI (T-47D breast) [µM]	TGI (MDA-MB-435) [µM]	GI50 (XF 498 CNS) [µM]
CC1S(=O)(=O)OCCOS1(=O)=O	> 100	> 100	> 100	> 100	–	–	–	–	–	–
Cc1cc2c3ccccc3n(C)c2c2c1C(=O)C=CC2=O	8.98	13	–	–	31.3 µM	25.5	21.5	19.4	45.2	–
COc1ccc(NC(=O)c2cc(OC)c(OC)c(OC)c2)cc1	> 100	> 100	> 100	> 100	> 100 µM	–	–	–	–	–
CCCCCCCCCCCCCC(=O)CBr	9.13	9.3	33.7	26	–	25	16.3	18.7	32	–
COc1ccc2oc3cccc(NCCN(C)C)c3c(=O)c2c1	26	27	32.4	22	28 µM	–	–	–	–	–
CCC12CCCC(=O)N1C(CO)C(c1ccccc1)O2 (stereo not given)	–	> 100	–	> 100	> 100 µM	–	–	–	–	–
Cn1nc(-c2ccccc2)c(C(=O)/C=C/c2ccccc2)c(N2CCOCC2)c1=O	34	38.2	–	42.9	30.7 µM	–	–	–	–	–
N[C@H](C(=O)O)[C@H](Cl)CC(=O)O	> 100	> 100	–	> 100	> 100 µM	–	–	–	–	–
CCCCCCCCCCCCCCCC(=O)OCC1OC(n2c(O)c(N=NC(N)=S)c3ccc([N+](=O)[O-])cc32)C(OC(C)=O)C1OC(C)=O (stereo not given)	> 100	> 100	> 100	> 100	> 100 µM	–	–	–	–	–
CC(=O)c1cc([N+](=O)[O-])ccc1OCC(=O)O	> 100	> 100	> 100	> 100	–	–	–	–	–	–
O=C(CN1CCN(c2ccccc2)CC1)N1CCc2c([nH]c3ccccc23)C1c1cccnc1 (stereo not given)	> 100	> 65	> 94.5	> 100	71.8 µM	–	–	–	–	–
CC1=C(O)C(=O)C2C(=O)C1C(C)C2c1ccc(Cl)cc1 (stereo not given)	> 100	–	> 100	–	> 100 µM	–	–	–	–	–
CC/C=C\C/C=C\C/C=C\CCCCCCCC(=O)OCC	> 100	> 100	–	> 100	> 100 µM	–	–	–	–	–
COc1nc2nccc-2c2occn12	> 100	> 100	> 100	> 100	> 100 µM	–	–	–	–	–
Cc1ccc(NC(=O)/C(=N\Nc2ccc([N+](=O)[O-])cc2[N+](=O)[O-])C2C(=O)NC(=O)NC2=O)cc1	> 100	> 100	> 100	> 100	–	–	–	–	–	–
CN(C)CCCN1CCc2c([nH]c3ccccc23)C1c1cccnc1 (stereo not given)	> 100	> 100	> 100	> 100	> 100 µM	–	–	–	–	–
CC(=O)Oc1ccc(O)c(O)c1C/C=C(\C)CC/C=C(\C)CC/C=C(\C)CCC=C(C)C	1.05	1.29	–	3.74	0.818 µM	–	–	–	–	–
CC1C(=O)C(C)C(c2ccccc2)N(N=O)C1c1ccccc1 (stereo not given)	> 1000	–	–	> 1000	73.8 µM and 214 µM	306	754	311	346	53.2

SMILES	TGI (LXFL 529 NSCLC) [µM]	TGI (DMS 114 small cell lung) [µM]	TGI (RXF-631 renal) [µM]	TGI (KM20L2 colon) [µM]	TGI (XF 498 CNS)	TGI (MDA-N) [µM]	TGI (PC-3 prostate) [µM]	TGI (T-47D breast) [µM]	TGI (MDA-MB-435) [µM]	GI50 (XF 498 CNS) [µM]
N#C/C(=C\c1cccc(O)c1)C(N)=O	> 100	> 100	> 100	> 100	> 100 µM	–	–	–	–	–
O=C1C2=C(c3ccccc31)C(c1ccccc1)NC(=S)N2 (stereo not given)	> 100	> 100	> 100	> 100	> 100 µM	–	–	–	–	–
OCCCCCCOc1ccc(-c2cc(-c3ccccn3)nc(-c3ccccn3)c2)cc1	4.97	1.48	–	–	5.32 µM	–	5.31	5.74	> 100	–
Cc1cc(=O)oc2cc3c(cc12)Oc1ccccc1O3	> 100	> 100	> 100	> 100	> 10 µM	–	–	–	–	–
O=C(O)c1cc(=O)c2[nH]c3ccccc3c2s1	> 100	> 100	> 100	> 100	> 100 µM	–	–	–	–	–
COc1cccc(C2c3cc4c(cc3OC(O)(CO)C2C(=O)O)OCO4)c1 (stereo not given) (tested in a mixture with another compound)	> 100	> 100	> 100	> 100	–	–	–	–	–	–
COc1cc([C@@H]2c3cc4c(cc3[C@@H](NC(=O)c3ccccc3)C3COC(=O)[C@@H]32)OCO4)cc(OC)c1O (stereo not given in full)	> 100	21.4	–	12.8	–	–	–	–	–	–
O=C1CC[C@@H](S(=O)(=O)c2ccccc2)[C@@H](/C=C/c2ccccc2)O1	> 100	> 100	–	> 100	–	–	–	–	–	–
COc1ccc(O)c(C#N)c1C#N	> 100	–	–	> 100	> 100 µM	–	–	–	–	–
Cc1cccc(C(C)C)c1NC(=O)C(=O)CC(=O)c1c(C)n([O-])c2ccccc2[n+]1=O	> 100	52.1	67.4	> 100	–	–	–	–	–	–
CCOC(=O)NN1C(=O)C(=P(c2ccccc2)(c2ccccc2)c2ccccc2)C(C(=O)OCC)=C1C	> 100	–	> 100	> 100	> 100 µM	–	–	–	–	–
CCCCCCCCCCCCCCCCCCCCCC(=O)Nc1ccn(C2OC(CO)C(O)C2O)c(=O)n1 (stereo not given)	> 100	> 43.2	–	> 100	> 100 µM	–	–	–	–	–
S=c1[nH]c2ccc(Br)cc2c(=S)n1-c1ccccc1	–	54.3	> 100	> 100	36.6 µM	–	–	–	–	–
CC(C)CC1=[N+]=C(NC#N)N=C(CCC(=O)Nc2ccccc2[N+](=O)[O-])C1	> 100	> 100	–	> 100	> 100 µM	–	–	–	–	–
CSc1nc2c(nc(N)n2C2OCC(O)C(O)C2O)c(=O)n1C (stereo not given)	> 100	> 100	> 100	> 100	> 100 µM	–	–	–	–	–
COc1cccc(C(=O)C2C(=O)N(C)CCc3ccccc32)c1OC (stereo not given)	> 100	> 100	> 100	> 100	> 100 µM	–	–	–	–	–
COc1cc(CNc2ccc(C(C)C)cc2)cc(OC)c1OC	48.7	48.7	–	38.8	59 µM	–	–	–	–	–

— PubChem BioAssay (NCI)
